According to ChEMBL document CHEMBL1156596, “Overcoming undesirable CYP1A2 inhibition of pyridylnaphthalene-type aldosterone synthase inhibitors: influence of heteroaryl derivatization on potency and selectivity” (J Med Chem, 2008):

What was measured:
in vivo = conditions: Wistar, rat, plasma, po, 5 mg/kg
CYP19 (aromatase) = target: T1, CYP19 (aromatase) (Homo sapiens, UniProt P11511); assay: Inhibition of human placental CYP19 at 500 nM
T1 sequence (P11511 whole entry): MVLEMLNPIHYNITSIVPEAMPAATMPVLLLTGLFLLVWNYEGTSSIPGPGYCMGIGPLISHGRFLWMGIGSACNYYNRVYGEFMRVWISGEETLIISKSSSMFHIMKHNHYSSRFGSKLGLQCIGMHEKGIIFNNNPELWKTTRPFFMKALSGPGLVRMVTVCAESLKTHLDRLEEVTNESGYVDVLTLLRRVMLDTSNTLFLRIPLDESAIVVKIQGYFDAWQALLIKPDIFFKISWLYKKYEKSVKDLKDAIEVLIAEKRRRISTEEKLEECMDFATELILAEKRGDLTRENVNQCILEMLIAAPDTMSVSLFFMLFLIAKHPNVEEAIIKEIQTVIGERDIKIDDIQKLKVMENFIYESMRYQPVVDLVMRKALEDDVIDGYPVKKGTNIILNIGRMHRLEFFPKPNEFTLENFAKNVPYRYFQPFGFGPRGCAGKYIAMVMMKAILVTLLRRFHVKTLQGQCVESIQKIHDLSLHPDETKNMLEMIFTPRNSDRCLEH

[1] = Tmax in Wistar rat at 5 mg/kg, po; type: ADME, organism-based; design: dose 5 mg/kg, route oral; conditions: in vivo
CYP1A2 = target: T2, CYP1A2 (Homo sapiens, UniProt P05177); assay: Inhibition of human recombinant CYP1A2 expressed in insect microsomes at 2 uM; type: ADME, Microsome
T2 sequence (P05177 whole entry): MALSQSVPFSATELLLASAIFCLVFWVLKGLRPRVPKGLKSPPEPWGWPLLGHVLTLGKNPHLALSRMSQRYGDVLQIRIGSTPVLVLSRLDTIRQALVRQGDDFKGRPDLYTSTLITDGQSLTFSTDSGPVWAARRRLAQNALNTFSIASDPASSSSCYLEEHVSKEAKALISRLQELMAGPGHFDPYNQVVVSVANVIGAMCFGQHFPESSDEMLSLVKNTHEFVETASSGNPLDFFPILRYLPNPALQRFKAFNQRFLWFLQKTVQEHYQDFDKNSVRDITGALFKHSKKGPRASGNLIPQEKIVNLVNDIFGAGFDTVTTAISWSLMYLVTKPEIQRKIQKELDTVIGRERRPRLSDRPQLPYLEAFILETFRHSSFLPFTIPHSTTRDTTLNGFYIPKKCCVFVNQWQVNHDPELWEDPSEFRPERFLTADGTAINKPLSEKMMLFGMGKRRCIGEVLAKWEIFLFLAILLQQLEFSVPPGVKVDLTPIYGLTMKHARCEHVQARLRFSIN

Cytochrome P450 1A2 = target: T3, Cytochrome P450 1A2 (Homo sapiens, UniProt P05177)
T3 sequence (P05177 whole entry): T2 sequence (P05177 whole entry)

[2] = Plasma concentration in Wistar rat plasma at 5 mg/kg, po after 4 hrs; type: ADME, organism-based; design: dose 5 mg/kg, route oral
Cytochrome P450 2D6 = Cytochrome P450 2D6 (Homo sapiens, UniProt P10635); assay: Inhibition of human recombinant CYP2D6 expressed in insect microsomes; type: ADME, Microsome
Cytochrome P450 3A4 = Cytochrome P450 3A4 (Homo sapiens, UniProt P08684); assay: Inhibition of human recombinant CYP3A4 expressed in insect microsomes; type: ADME, Microsome
[3] = Plasma concentration in Wistar rat plasma at 5 mg/kg, po after 6 hrs; type: ADME, organism-based; design: dose 5 mg/kg, route oral

Sequence of Cytochrome P450 3A4 (P08684 whole entry): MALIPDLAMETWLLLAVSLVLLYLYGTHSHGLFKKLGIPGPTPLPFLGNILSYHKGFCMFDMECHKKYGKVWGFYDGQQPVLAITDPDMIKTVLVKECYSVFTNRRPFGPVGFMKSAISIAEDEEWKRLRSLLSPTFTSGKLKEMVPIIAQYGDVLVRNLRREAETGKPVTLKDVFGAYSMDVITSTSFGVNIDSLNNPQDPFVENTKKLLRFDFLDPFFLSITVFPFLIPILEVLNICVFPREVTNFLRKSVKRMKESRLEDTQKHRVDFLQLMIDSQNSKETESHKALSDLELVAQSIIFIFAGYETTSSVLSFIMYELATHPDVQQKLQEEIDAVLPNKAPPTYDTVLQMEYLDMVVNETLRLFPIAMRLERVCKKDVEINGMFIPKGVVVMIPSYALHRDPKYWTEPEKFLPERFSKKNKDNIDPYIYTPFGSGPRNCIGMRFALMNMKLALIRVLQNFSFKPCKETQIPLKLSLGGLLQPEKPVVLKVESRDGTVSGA
Sequence of Cytochrome P450 2D6 (P10635 whole entry): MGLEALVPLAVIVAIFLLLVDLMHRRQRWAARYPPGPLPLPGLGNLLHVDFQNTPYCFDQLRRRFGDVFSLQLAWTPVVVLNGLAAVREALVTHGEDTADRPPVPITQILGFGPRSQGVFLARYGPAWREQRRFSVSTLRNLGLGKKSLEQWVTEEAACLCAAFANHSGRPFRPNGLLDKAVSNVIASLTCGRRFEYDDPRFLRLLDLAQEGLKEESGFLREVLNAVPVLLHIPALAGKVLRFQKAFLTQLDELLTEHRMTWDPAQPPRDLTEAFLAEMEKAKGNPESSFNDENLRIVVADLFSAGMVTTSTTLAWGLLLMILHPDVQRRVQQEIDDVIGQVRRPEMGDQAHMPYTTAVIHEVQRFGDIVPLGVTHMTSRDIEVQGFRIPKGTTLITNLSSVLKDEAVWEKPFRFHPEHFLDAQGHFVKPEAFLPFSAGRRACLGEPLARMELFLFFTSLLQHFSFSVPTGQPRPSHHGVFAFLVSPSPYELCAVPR

Q: For `COc1ccc2cc(-c3cncc4ccccc34)ccc2c1`, which AUC(0-inf) (in vivo) is on record?
A: 762 ng·h/mL

Q: What about the inhibition at 0.5 µM (CYP19 (aromatase)) of the same compound?
A: 7%

Q: And the Tmax [1]?
A: 6 h

Q: What about the inhibition at 2 µM (CYP1A2) of the same compound?
A: 57%

Q: What about the IC50 (Cytochrome P450 1A2) of the same compound?
A: 1.62 µM

Q: And the concentration at 4 h [2]?
A: 76.3 ng/mL

Q: And the IC50 (Cytochrome P450 2D6)?
A: 33.1 µM

Q: And the IC50 (Cytochrome P450 3A4)?
A: 3.54 µM

Q: What about the concentration at 6 h [3] of the same compound?
A: 81.4 ng/mL
